Measured values taken from ChEMBL document CHEMBL1201862, “PubChem BioAssay data set” (2004).
The source made the active and inactive calls.

Columns and labels:
[1] = growth suppression of PTEN-null colon cells, dose response, cell-based, HCT116 PTEN knockout (AID 1047); assay type: functional;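 note: HCT116 colon tumor cells with PTEN knocked out; cells exposed to compound for 60 hours before readout; potency for loss of cell viability measured by luminescence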
[2] = growth suppression of beta-catenin-knockout colon cells, dose response, cell-based, HCT116, human colon tumor (AID 1045); assay type: functional;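 note: HCT116 colon tumor cells with beta catenin knocked out; cells exposed to compound for 60 hours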
[3] = biological target: T1, Sentrin-specific protease 8 (Homo sapiens, UniProt Q96LD8); assay type: functional
T1 sequence (Q96LD8 whole entry): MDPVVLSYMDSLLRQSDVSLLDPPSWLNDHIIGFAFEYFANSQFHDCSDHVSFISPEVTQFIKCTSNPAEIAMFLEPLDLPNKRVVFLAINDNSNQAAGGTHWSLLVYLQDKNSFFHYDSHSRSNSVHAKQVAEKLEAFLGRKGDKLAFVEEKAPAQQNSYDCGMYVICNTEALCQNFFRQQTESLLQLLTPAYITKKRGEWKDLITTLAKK

[4] = biological target: T1, Sentrin-specific protease 8; assay type: functional; remark: listed apart in the source
[5] = biological target: T2, Mannose-6-phosphate isomerase (Homo sapiens, UniProt P34949); test: human PMI inhibitors, high substrate, primary screen, biochemical, fluorescence intensity, high mannose 6-phosphate (AID 1220)
T2 sequence (P34949 whole entry): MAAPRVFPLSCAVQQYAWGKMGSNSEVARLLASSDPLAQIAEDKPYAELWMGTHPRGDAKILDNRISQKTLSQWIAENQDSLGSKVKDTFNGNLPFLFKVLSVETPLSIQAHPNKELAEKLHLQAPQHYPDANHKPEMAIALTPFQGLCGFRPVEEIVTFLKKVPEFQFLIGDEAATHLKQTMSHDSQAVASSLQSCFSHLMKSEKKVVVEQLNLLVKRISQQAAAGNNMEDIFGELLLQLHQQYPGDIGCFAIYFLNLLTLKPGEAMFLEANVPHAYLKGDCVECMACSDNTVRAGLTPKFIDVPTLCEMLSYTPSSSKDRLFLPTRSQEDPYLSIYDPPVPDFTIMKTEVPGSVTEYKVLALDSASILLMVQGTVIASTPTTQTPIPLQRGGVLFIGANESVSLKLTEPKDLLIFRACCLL

[6] = Shn3 3'UTR reporter inhibitors, dose response, cell-based, Clone20 osteoblasts, firefly luciferase, cherry-picked (AID 624132); assay type: functional;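 note: firefly luciferase luminescence from reporter carrying the Shn3 3'UTR in osteoblasts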
[7] = HepG2 cell cytotoxicity, dose response, cytotoxicity control for Shn3 inhibitor project, CellTiter-Glo, cherry-picked (AID 624134); assay type: functional, cell-based
[8] = biological target: T3, Carboxy-terminal domain RNA polymerase II polypeptide A small phosphatase 1 (Homo sapiens, UniProt Q9GZU7); test: inhibitors of CTDSP1, concentration-response testing, biochemical assay, absorbance-based, actives from ultra-high-throughput screening (AID 540297); assay type: functional
T3 sequence (Q9GZU7 whole entry): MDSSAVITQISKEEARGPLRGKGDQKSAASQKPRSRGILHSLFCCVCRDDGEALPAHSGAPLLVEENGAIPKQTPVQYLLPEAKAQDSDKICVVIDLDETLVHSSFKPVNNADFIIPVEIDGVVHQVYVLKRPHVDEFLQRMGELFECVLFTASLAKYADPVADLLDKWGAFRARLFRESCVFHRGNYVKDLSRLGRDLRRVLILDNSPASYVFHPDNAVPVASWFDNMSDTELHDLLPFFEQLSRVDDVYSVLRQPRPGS

[9] = control 3'UTR Renilla luciferase suppression, dose response, counter-screen for Shn3 inhibitor project, cell-based, Clone20-Shn3RL, cherry-picked (AID 624133); assay type: functional
cells [10] = assay type: functional, cell-based
cells [11] = assay type: functional, cell-based; remark: listed apart in the source
[12] = biological target: T4, Heat shock factor protein 1 (Mus musculus, UniProt P38532); test: inhibition of MG132-induced HSE-luciferase signal, confirmation, cell-based, NIH3T3, luminescence, dose retest (AID 2382); assay type: functional;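 note: NIH3T3 fibroblasts with HSF1-driven luciferase reporter stressed by proteasome inhibitor MG132; luminescence from HSF1-driven luciferase expression after 8 hours of MG132 stress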
T4 sequence (P38532 whole entry): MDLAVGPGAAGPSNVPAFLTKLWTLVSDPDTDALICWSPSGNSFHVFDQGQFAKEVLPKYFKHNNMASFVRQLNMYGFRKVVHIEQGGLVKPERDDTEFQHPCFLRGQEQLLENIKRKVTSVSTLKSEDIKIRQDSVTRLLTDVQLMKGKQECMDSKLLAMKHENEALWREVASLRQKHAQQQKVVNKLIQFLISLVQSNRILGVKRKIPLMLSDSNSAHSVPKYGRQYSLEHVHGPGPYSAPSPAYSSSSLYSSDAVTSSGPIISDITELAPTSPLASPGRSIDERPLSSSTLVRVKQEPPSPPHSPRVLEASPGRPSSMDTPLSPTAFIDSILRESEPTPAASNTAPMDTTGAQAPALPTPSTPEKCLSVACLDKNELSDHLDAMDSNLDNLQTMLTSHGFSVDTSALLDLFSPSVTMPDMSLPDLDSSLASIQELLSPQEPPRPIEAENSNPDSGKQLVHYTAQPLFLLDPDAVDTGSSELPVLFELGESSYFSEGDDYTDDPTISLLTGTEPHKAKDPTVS

[13] = Luminescence Cell-Based Dose Retest to Confirm Inhibitors of Cancer Stem Cells. [Related pubchem assays (depositor defined):AID2717, AID2721]; assay type: functional; conditions: Homo sapiens
[14] = Luminescence Cell-Based Dose Response HTS to Identify Inhibitors of 5'UTR Stem-Loop Driven Prion Protein mRNA Translation in H4 Neuroglioblastoma Cells. [Related pubchem assays: 1827 (Project Summary), 1813 (Primary HTS)]; assay type: functional
[15] = inhibitors of SNCA 5'UTR-driven reporter translation, confirmation, H4 neuroglioma cells, luminescence (AID 1988); assay type: functional, cell-based
[16] = biological target: T5, Microphthalmia-associated transcription factor (Homo sapiens, UniProt O75030); test: TRPM1 promoter luciferase signal decrease, dose response, MITF inhibitor project, cell-based, SK-MEL-5, cherry-picked, set 3 (AID 493073); assay type: functional
T5 sequence (O75030 whole entry): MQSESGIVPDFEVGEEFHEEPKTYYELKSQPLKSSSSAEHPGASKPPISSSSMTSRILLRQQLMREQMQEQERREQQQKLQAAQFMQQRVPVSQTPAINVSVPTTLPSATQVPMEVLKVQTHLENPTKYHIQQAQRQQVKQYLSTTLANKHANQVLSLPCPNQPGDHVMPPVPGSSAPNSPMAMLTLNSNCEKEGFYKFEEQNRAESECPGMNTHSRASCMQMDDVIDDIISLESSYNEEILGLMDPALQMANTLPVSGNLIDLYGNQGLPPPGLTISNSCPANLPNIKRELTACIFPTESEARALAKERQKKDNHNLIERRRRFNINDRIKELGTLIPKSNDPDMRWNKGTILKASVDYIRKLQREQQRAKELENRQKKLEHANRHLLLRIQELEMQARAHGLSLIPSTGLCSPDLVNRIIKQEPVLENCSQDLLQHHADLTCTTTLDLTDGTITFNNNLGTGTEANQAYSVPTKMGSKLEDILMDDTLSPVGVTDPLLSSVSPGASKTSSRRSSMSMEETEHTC

[17] = inhibitors of firefly luciferase expression or activity, dose response, H4 neuroglioma cells, luminescence (AID 1990); assay type: functional, cell-based
H9c2 = test: cells; assay type: functional, cell-based; conditions: Rattus norvegicus, H9c2, Myocardium;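 note: confirmatory concentration-response retest of ultra-high-throughput screening hits for modulation of myocardial damage; cell death induced by hydrogen peroxide oxidative stress; compound pretreatment for 60 min then peroxide exposure for 2 h; potency is for protecting the cells against peroxide damage rather than for killing them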
[18] = inhibitors of clade B AD8 Env fusion, dose response, cell-based, cherry-pick (AID 652062); assay type: functional;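 note: luciferase signal from cell-cell fusion driven by HIV-1 clade B AD8 Env; potency is for inhibitors of fusion seen as a drop in luminescence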
[19] = biological target: T6, Rac GTPase-activating protein 1 (Homo sapiens, UniProt Q9H0H5); test: MgcRacGAP GTPase-activating activity inhibitors, confirmation, biochemical, ADP Hunter fluorescence, primary and confirmatory (AID 624330); assay type: functional
T6 sequence (Q9H0H5 whole entry): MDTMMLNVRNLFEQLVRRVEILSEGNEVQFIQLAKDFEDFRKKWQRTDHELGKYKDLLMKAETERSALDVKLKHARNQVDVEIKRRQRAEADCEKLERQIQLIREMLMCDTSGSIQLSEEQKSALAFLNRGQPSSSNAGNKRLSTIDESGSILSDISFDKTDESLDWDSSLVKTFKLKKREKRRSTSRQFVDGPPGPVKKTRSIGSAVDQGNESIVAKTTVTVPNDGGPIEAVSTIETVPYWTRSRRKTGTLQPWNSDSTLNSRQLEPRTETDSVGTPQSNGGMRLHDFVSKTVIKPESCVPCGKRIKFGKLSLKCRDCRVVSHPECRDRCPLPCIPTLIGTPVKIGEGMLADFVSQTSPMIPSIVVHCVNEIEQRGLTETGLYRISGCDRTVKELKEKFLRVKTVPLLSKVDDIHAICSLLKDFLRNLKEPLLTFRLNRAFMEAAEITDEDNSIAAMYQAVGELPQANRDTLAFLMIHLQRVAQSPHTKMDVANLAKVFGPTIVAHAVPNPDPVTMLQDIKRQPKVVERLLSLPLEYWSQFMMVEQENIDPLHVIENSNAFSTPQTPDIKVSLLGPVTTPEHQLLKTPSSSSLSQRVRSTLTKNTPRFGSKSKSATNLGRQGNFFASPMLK

SMILES: Cc1cc(S(=O)(=O)N2CCN(Cc3ccc4c(c3)OCO4)CC2)cc(C)c1N1CCCC1=O
- EC50 [1]: 45.7 µM (active)
- EC50 [2]: 36 µM (active)

SMILES: CN(c1ccc(C(=O)N2CCc3ccccc3C2)cc1)S(C)(=O)=O
- IC50 [3]: 90.5 µM (inactive)
- IC50 [4]: 13.1 µM (active)

SMILES: Cn1cccc1/C=C1\CCc2ccccc2C1=O
- IC50 [5]: > 50 µM (not active)

SMILES: COC(=O)CCC(=O)OC1(C)C(=O)C=C2C=C3CCCN3C=C2C1=O (configuration not stated)
- IC50 [3]: 6.06 µM (active)
- IC50 [4]: 7.67 µM (active)

SMILES: COc1ccc(Nc2nc(N)nc(CN3CCC(Cc4ccccc4)CC3)n2)cc1
- EC50 [1]: 17.7 µM (active)
- EC50 [2]: 23.5 µM (active)

SMILES: CC(C)(C)OC(=O)NCc1ccc(CNC(=O)c2nc[nH]c2C(=O)NCc2ccc(CNC(=O)OC(C)(C)C)cc2)cc1
- AC50 [6]: 5.89 µM (active)
- AC50 [7]: > 70 µM (inactive)

SMILES: O=C(/C=C/c1ccco1)N1CCN(S(=O)(=O)c2ccccc2)CC1
- IC50 [8]: 4.94 µM (active)

SMILES: CC(NC(=O)Nc1cccc([N+](=O)[O-])c1)(C(F)(F)F)C(F)(F)F
- EC50 [1]: 12 µM (active)
- EC50 [2]: 12.3 µM (active)

SMILES: Cc1ccc(C(NC(=O)C2CCCCC2)c2c(O)ccc3ccccc23)cc1 (configuration not stated)
- EC50 [1]: 17.4 µM (active)
- EC50 [2]: 21.5 µM (active)

SMILES: COc1ccccc1N=C(N)Nc1nc(O)cc(CSc2ccc(C)cc2)n1
- AC50 [9]: 12.4 µM (active)
- AC50 [6]: 2.95 µM (active)
- AC50 [7]: 59.8 µM (active)

SMILES: COc1ccccc1N(CC(=O)NCc1ccco1)S(=O)(=O)c1ccc(C)cc1
- IC50 [8]: 5.17 µM (active)

SMILES: Cc1ccc(-n2nc3c(=O)n(CC(=O)NCc4ccccc4)nc(C)c3c2C)cc1
- EC50 (cells [10]): > 350 µM (not active)
- EC50 (cells [11]): > 350 µM (not active)

SMILES: NC(=S)NNc1cccc2cccnc12
- IC50 [3]: 7.91 µM (active)
- IC50 [4]: 6 µM (active)

SMILES: OCCC1CN(Cc2c(O)ccc3ccccc23)CCN1CCc1ccccc1 (configuration not stated)
- IC50 [5]: > 50 µM (not active)

SMILES: CCC1CCc2sc(C(=O)NCc3ccccn3)cc2C1 (configuration not stated)
- EC50 (cells [10]): > 350 µM (not active)
- EC50 (cells [11]): 52.4 µM (active)

SMILES: CN1CCN(CC(=O)n2c3c(c4ccccc42)CCCC3)CC1
- EC50 [12]: > 195 µM (not active)
- IC50 [3]: > 100 µM (inactive)
- IC50 [4]: 16.6 µM (active)

SMILES: Cc1ccc(C(=O)N2C(=S)C(c3ccc(F)cc3)=NC23CCN(C)CC3)cc1
- IC50 [3]: > 100 µM (inactive)
- IC50 [4]: 15 µM (active)

SMILES: Cc1ccc(C(=O)OCC(=O)c2ccc(CC(=O)N3CCOCC3)s2)cc1C
- IC50 [8]: 5.01 µM (active)

SMILES: COc1ccc(C2c3ccc4ccccc4c3Oc3ncn(Cc4ccco4)c(=N)c32)cc1OC (configuration not stated)
- EC50 [1]: 7.09 µM (active)
- EC50 [2]: 8.96 µM (active)
- AC50 [13]: 3.94 µM (active)

SMILES: Cc1cc(N2CCOCC2)nc2ccc(NC(=S)N3CCCCC3C)cc12 (configuration not stated)
- IC50 [5]: > 50 µM (not active)

SMILES: COc1cc(NC(c2ccccc2)c2ccccc2)cc(OC)c1OC
- IC50 [5]: > 50 µM (not active)

SMILES: O=C(/C=C/c1ccc(Cl)cc1)NC(=S)Nc1ccccc1C(=O)O
- IC50 [8]: 8.66 µM (active)

SMILES: CC(Oc1ccc(F)cc1)C(=O)Nc1nc(-c2ccccn2)cs1 (configuration not stated)
- EC50 [14]: 10.2 µM (active)
- EC50 [15]: > 120 µM (not active)
- AC50 [16]: 9.42 µM (active)
- EC50 [17]: > 120 µM (not active)
- IC50 (H9c2): > 79 µM (inactive)

SMILES: Nc1ccn([C@@H]2O[C@H](C(=O)NCc3ccc4c(c3)OCO4)[C@@H](O)[C@H]2O)c(=O)n1
- AC50 [18]: 0.723 µM (active)

SMILES: CC(=O)N(CCc1ccccc1)c1ccc2c(c1)C1CC2CCN1C(=O)OCc1ccccc1 (configuration not stated)
- AC50 [6]: 14.3 µM (active)
- AC50 [7]: > 70 µM (inactive)

SMILES: Cn1nc(C(C)(C)C)cc1C(=O)N1CCCCC1c1cc(C(=O)Nc2ccc(F)c(Cl)c2)no1 (configuration not stated)
- AC50 [9]: 5.06 µM (active)
- AC50 [6]: 3.04 µM (active)
- AC50 [7]: 5.09 µM (active)

SMILES: CCS(=O)(=O)N1CCCC(C(=O)N2CCc3ccccc3C2)C1 (configuration not stated)
- IC50 [3]: 71.7 µM (inactive)
- IC50 [4]: 17.7 µM (active)

SMILES: COc1ccc(/C=N/NC(=O)c2cccc(NC(=O)c3ccc(Cl)cc3)c2)c(OC)c1
- IC50 [8]: 6.27 µM (active)

SMILES: Cc1ccc(O)c(/C=N/c2ccc3[nH]ncc3c2)c1
- IC50 [5]: > 50 µM (not active)
- IC50 [19]: 27.7 µM (active)

SMILES: O=C(O)c1ccc(N2C(=O)CSC2=S)cc1
- EC50 (cells [10]): > 350 µM (not active)
- EC50 (cells [11]): > 350 µM (not active)
